Patent publication US20220275037A1, “ß-AMYLOID CYCLIC RIBONUCLEIC ACID, POLYPEPTIDE, AND APPLICATION THEREOF” (priority 2019, published 2022)

Legend:
[1] = tested on: circAβ-a; experiment: qRT-PCR of circAβ-a under ASO treatment; assay type: cell-based, human; settings: cells overexpressing circAβ-a, vs Scr. ASO
Text: (§1) FIG. 7A. Schematic diagram of the designing of anti-circAβ-a-ASO. FIG. 7B. β-amyloid circular ribonucleic acid qRT-PCR results under ASO treatment; BE-Aβ represents the plasmid overexpressing circAβ-a using pCircRNA-BE vector; DMo-Aβ represents the overexpression using pCircRNA-DMo vector circAβ-a plasmid; Scr. ASO means negative control experiment ASO. FIG. 7C. qRT-PCR results of APP mRNA under ASO treatment.
(§2) In this example, the specific antisense oligonucleotide (ASO) against β-amyloid cyclic ribonucleic acid (circAβ) is used to inhibit and degrade circAβ to prevent and treat Alzheimer's disease. As shown in FIGS. 7A-7C, the level of the circular RNA in the cell is reduced by antisense oligonucleotides (anti-circAβ-a-ASO) against β-amyloid cyclic ribonucleic acid-a (circAβ-a). The APP mRNA was not affected (FIG. 7C). As shown in the figure, antisense oligonucleotides containing SEQ ID No. 41-57 anti-amyloid cyclic ribonucleic acid (circAβ). Antisense oligonucleotides recognize β-amyloid circular ribonucleic acid through base complementary pairing. Antisense oligonucleotides that bind target RNA can degrade target RNA by activating RNase H enzyme activity (FIGS. 7A-7C). Antisense oligonucleotides can also regulate (such as inhibit) protein translation by binding to target RNA.

[2] = tested on: APP mRNA; experiment: qRT-PCR of APP mRNA under ASO treatment; assay type: cell-based, human
Text: as §1, §2

AAGCAGCTCATCTCCACCACAC (listed as DNA, chemistry not given here) [anti-circAβ-a-ASO, antisense oligonucleotide against circAβ-a]
level of circAβ-a in cells [1]: reduced | APP mRNA level [2]: not affected
